According to US5880097A, “Tethered prodrugs” (Terrapin Techologies, Inc., priority 1996, dated 1999):
*1 amine or outer side, *2 acyl side, *3 side chain or, on linkers, in order; H or OH if unused. Where a SMILES comes first, the peptide text is derived from it. [ ]: non-standard residue; d: D form. The star is where a group is joined. γGlu = O=C(O)[C@H](CCC(=O)[*:2])N[*:1]; dPhg = N[C@@H](C(=O)O)c1ccccc1; Bn = c1ccc(C*)cc1

Legend:
[1] = biological target: T1, MRP system of human erythrocytes (Homo sapiens, UniProt P33527); experiment: Inhibition of uptake of tritiated DNP-glutathione conjugate by inside-out vesicles of human erythrocytes; type: biochemical; conditions: for inhibition of labeled conjugate (DNP-GSH) uptake: compound 1 μM, labeled DNP-GSH 5 μM, 15 minutes at 37° C., mean of three trials; for Interaction with MRP pump (reduction of transport of radiolabeled GSH analog): summary in words
T1 construct: from tissue; host or cells: human erythrocytes (membranes; inside-out vesicles)
Protocol: (§1) Two indirect measures of interaction of test compounds in the MRP system of human erythrocytes were used. The first was stimulation of basal Mg^+2 stimulated ATPase activity, the other was inhibition of transport of tritiated dinitrophenyl-S-glutathione.
In the alternative method, the uptake of tritiated DNP-glutathione conjugate by inside-out vesicles of human erythrocytes was determined as described in Akerboom, T. P. M. et al, Biochim Biophys Acta (1992) 1103.:115-119. The labeled DNP-GSH concentration was 5 μM and the compounds were added at a final concentration of 1 μM; uptake of labeled DNP-GSH was measured after 15 minutes incubation at 37° C.

[2] = biological target: T1, MRP system of human erythrocytes; experiment: Stimulation of basal Mg+2 stimulated ATPase activity in erythrocyte membranes; type: biochemical; conditions: 37° C., 30 minutes; for Km / Vmax of ATPase stimulation: average of three determinations
Protocol: as §1
In the first method, the method of Bartosz, M. et al, Biochem Mol Biol Int (1994) 34:521-529 was used. Briefly, the compounds were added to erythrocyte membranes in a medium containing 100 mM Tris HCl, […], 10 mM MgCl2, 1 mM ATP, 0.1 mM ouabain and 1 mM EGTA with an incubation at 37° C. for 30 minutes. Stimulation of ATPase activity was measured as described.

[3] = biological target: T2, GST A1-1 (Homo sapiens, UniProt P08263); conditions: as described in the PCT application WO 95/09866; cited from earlier work
T2 sequence (P08263 1-222): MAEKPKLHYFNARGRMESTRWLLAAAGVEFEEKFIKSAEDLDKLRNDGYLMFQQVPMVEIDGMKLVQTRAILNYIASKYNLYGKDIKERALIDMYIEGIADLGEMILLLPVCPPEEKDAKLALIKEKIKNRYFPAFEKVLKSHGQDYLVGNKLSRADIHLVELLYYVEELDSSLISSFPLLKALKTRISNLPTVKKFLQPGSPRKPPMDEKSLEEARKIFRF

[4] = biological target: GST P1-1 (Homo sapiens, UniProt P09211); conditions: cited from earlier work
GST P1-1, sequence (P09211 2-210 limits assumed): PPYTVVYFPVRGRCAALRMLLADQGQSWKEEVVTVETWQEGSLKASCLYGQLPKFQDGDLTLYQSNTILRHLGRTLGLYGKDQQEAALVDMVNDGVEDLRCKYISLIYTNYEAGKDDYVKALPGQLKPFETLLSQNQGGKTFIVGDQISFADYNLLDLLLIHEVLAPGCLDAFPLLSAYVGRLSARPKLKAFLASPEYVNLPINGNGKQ

T1 sequence (P33527 whole entry): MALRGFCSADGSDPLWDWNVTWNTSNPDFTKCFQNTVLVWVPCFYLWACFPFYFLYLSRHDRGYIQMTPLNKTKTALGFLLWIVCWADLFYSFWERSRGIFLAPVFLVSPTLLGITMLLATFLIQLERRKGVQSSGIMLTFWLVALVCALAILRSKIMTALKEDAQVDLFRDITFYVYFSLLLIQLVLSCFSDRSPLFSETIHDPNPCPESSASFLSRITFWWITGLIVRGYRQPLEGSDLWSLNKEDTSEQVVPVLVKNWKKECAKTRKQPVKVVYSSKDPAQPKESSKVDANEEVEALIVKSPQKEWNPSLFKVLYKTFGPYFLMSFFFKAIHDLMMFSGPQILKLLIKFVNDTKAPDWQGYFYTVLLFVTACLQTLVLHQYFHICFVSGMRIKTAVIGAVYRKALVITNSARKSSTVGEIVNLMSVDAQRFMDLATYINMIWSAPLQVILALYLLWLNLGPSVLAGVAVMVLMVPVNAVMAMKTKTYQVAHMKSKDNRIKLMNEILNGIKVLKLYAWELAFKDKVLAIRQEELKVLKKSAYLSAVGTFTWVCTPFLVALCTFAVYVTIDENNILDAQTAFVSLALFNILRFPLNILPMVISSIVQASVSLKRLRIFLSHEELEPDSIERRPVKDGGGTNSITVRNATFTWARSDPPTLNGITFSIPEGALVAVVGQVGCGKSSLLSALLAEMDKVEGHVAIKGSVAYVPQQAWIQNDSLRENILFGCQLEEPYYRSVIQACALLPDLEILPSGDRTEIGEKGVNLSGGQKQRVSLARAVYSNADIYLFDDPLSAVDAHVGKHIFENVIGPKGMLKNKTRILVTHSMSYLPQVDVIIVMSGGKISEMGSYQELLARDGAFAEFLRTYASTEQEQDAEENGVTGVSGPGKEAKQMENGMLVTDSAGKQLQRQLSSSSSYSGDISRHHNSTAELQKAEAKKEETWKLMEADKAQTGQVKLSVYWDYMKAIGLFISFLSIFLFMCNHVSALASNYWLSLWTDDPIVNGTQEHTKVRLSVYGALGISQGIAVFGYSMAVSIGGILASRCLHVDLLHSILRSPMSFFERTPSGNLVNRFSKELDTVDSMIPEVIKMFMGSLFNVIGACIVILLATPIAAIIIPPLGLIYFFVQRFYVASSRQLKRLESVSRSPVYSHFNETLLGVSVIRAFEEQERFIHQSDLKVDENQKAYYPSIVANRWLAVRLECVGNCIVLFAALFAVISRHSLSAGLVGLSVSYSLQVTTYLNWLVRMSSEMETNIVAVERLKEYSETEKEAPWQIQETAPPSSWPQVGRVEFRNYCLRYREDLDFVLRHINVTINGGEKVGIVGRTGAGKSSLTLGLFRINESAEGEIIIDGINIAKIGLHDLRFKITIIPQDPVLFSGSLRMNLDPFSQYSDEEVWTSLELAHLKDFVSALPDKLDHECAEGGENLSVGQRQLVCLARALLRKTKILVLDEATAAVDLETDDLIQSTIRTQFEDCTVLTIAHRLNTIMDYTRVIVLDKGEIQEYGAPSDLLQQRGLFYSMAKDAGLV

| SMILES | inhibition of labeled conjugate (DNP-GSH) uptake [1] [%] | Interaction with MRP pump (reduction of transport of radiolabeled GSH analog) [1] | Stimulation of ATPase activity [2] | Km [2] [µM] | Vmax of ATPase stimulation [2] [mM/mg protein per hr] | Susceptibility to cleavage by GST A1-1 [3] | Susceptibility to cleavage by GST P1-1 ([4]; as described in the PCT application WO 95/09866) | Isoenzyme specificity of prodrug ([4]; cells having GST complements high in the P1-1 isoform) |
| --- | --- | --- | --- | --- | --- | --- | --- | --- |
| N[C@@H](CCC(=O)N[C@@H](CSCc1ccccc1)C(=O)N[C@@H](C(=O)O)c1ccccc1)C(=O)O [TER 117, γGlu-C(Bz)-.o slashed.Gly] (γGlu-Cys(Bn)-[dPhg]-OH) | 0.2 | does not | did not stimulate ATPase activity | – | – | – | – | – |
| N[C@@H](CCC(=O)N[C@@H](CSCc1ccccc1)C(=O)NCC(=O)O)C(=O)O [TER 222, γGlu-C(Bz)-Gly] | 62.5 | interact with MRP so as to reduce the transport of radiolabeled GSH analog | – | 385 | 125.9 | – | – | – |
| N[C@@H](CCC(=O)N[C@@H](CSCc1ccccc1)C(=O)NCCC(=O)O)C(=O)O [TER 106, γGlu-C(Bz)-βAla] | 66.2 | interact with MRP so as to reduce the transport of radiolabeled GSH analog | – | 1820 | 209.6 | – | – | – |
| N[C@@H](CCC(=O)N[C@@H](CS(=O)(=O)CCOP(=O)(N(CCCl)CCCl)N(CCCl)CCCl)C(=O)N[C@@H](C(=O)O)c1ccccc1)C(=O)O [TER 286] | – | – | – | – | – | particularly susceptible to cleavage | particularly susceptible to cleavage | has the desired isoenzyme specificity |
